Test results published in patent US5990160A, “Use of tropolone derivatives as inhibitors of the enzyme inositol monophosphatase” (Gruppo Lepetit, SpA, priority 1995, dated 1999).
“Also recorded” adds a separate entry of the source.

Tests used:
[1] = target: T1, inositol monophosphatase (IMPase) (Bos taurus, UniProt P20456); test: Inhibition of inositol monophosphatase (IMPase) enzyme activity, liberated phosphate by molybdate coloration; assay type: biochemical, animal; settings: 4 mM 2-glycerolphosphate, 5 μg/ml IMPase, 50 mM Tris-HCl pH 7.5, 2 mM magnesium chloride, 0.1 mM EGTA, 30 minutes; read-out: IC50 (molar amount of inhibitor required to inhibit the enzyme activity by 50%)
T1 sequence (P20456 1-277): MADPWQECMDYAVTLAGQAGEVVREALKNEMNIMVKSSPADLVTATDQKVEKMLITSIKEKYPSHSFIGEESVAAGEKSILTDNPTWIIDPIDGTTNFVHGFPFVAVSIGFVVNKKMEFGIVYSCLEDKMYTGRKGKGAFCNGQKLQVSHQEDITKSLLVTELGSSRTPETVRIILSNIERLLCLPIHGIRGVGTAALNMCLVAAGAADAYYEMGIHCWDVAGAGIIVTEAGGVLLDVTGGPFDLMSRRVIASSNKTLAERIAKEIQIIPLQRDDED
Excerpt: For determining the activity of the compounds of formula I, IMPase with a purity higher than 90% as judged by SDS-PAGE (sodium dodecyl sulphate polyacrylamide gel electrophoresis) is purified as described in P. D. Pelton and A. J. Ganzhorn, Journal Biolog. Chem., 267, 1992, pp. 5916-5920. The enzyme can be purified from animal brain or from recombinant E. coli strains expressing animal IMPase. Although crude enzyme preparations can also be used, it is preferable to use purified enzyme. The purified enzyme routinely has a specific activity of 25 μmol of Pi/min/mg of protein as determined in a standard assay (P. V. Attwood et al., Biochem. Jour., 1988, 253, pp. 387-394) with 4 mM 2-glycerolphosphate as substrate.
The enzyme activity may be determined according to A. J. Ganzhorn and M. C. Chanal, Biochem., 1990, 29; the reaction mixture contains 50 mM Tris-HCl, pH 7.5, 2 mM magnesium chloride and 0.1 mM EGTA. Then, 5 μg/ml of enzyme IMPase and 4 mM of 2-glycerolphosphate substrate are added to the reaction mixture; alternatively, it is also possible to add the substrate directly into the reaction mixture, before adding the enzyme.
The reaction is considered terminated after 30 minutes from the addition of the substrate or the enzyme (depending on which one is added later); the liberated phosphate is determined by molybdate coloration (P. V. Attwood et al., Biochem. Jour., 1988, 253, pp. 387-394) at 350 nm with a Shimadzu spectrophotometer UV 2100.
The enzyme reaction is performed either in the absence or in the presence of various concentrations of the compounds of formula I, to determine the molar amount of inhibitor required to inhibit the enzyme activity by 50% (IC50).

[2] = cited from earlier work
bipolar disorder / mania = settings: cited from earlier work
inositol monophosphatase = settings: cited from earlier work

| IC50 [1] | Compound | structural lesions in kidney ([2]; after chronic lithium treatment, especially in patients who have experienced lithium toxicity) | adverse effects common to lithium therapy ([2]; lithium therapy) | occurrence of polyuria-polydipsia syndrome ([2]; lithium treatment) | time it takes to exert anti-manic effect (bipolar disorder / mania; acute bipolar disorder) | anti-manic and anti-depressive therapeutic effect (bipolar disorder / mania; preferably employed as lithium carbonate) | inhibition of inositol monophosphatase activity (inositol monophosphatase) |
| --- | --- | --- | --- | --- | --- | --- | --- |
| ~4 µM | O=C1OC(=O)c2c1cc(O)c(O)c(O)c2=O [puberulonic acid, 3,4,6-trihydroxy-5-oxo-1,3,6-cycloheptatriene-1,7-dicarboxylic acid anhydride] | – | – | – | – | – | – |
| ~40 µM | O=C(O)c1cc(O)c(O)c(=O)c(O)c1 [puberulic acid, 3,4,6-trihydroxy-5-oxo-1,3,6-cycloheptatriene-1-carboxylic acid] | – | – | – | – | – | – |

| Compound | IC50 [1] | structural lesions in kidney ([2]; after chronic lithium treatment, especially in patients who have experienced lithium toxicity) | adverse effects common to lithium therapy ([2]; lithium therapy) | occurrence of polyuria-polydipsia syndrome ([2]; lithium treatment) | time it takes to exert anti-manic effect (bipolar disorder / mania; acute bipolar disorder) | anti-manic and anti-depressive therapeutic effect (bipolar disorder / mania; preferably employed as lithium carbonate) | inhibition of inositol monophosphatase activity (inositol monophosphatase) |
| --- | --- | --- | --- | --- | --- | --- | --- |
| lithium | ~1250 µM | interstitial fibrosis, tubular atrophy and glomerular sclerosis | tremor, weight gain, diarrhea and skin rash; also recorded: transient leukocytosis; also recorded: can cause patients with a borderline thyroid reserve to become clinically hypothyroid; also recorded: can decompensate cardiac status due to shifts in fluids and electrolytes | up to 60 % of treated patients | 7 to 10 days | alleviating manic symptoms, normalizing the mood of manic patients | inhibits the activity of said enzyme |
